Results taken from patent publication US20140179677A1, “THERAPEUTIC AGENT FOR ECTOPIC PREGNANCY” (AKITA UNIVERSITY, priority 2010, published 2014).

Legend:
[1] = tested on: human placental villous explants (villous trophoblasts); assay: Human villous explant culture: apoptosis (TUNEL, caspase-3/7 enzyme assay); type: cell-based; settings: 96 h culture; for proportion of TUNEL-positive nuclei: TrkB ectodomain 10 μg/ml, K252a 1,000 nM, K252b 1,000 nM; for caspase-3/7 activities, increase relative to controls: villous explants, 3% O2
Experimental: (§1) Preparation and cultivation of human villous explants of first trimester placentas were performed as described (Non-patent Document 13). Briefly, human placental villi at 6-8 weeks of gestation were aseptically dissected to remove decidual tissue and fetal membranes. Small pieces of placental villi (8 mg wet weight) were dissected under a stereomicroscope (Leica Microsystems, Tokyo, Japan). Each villous piece was put on Millicell-CM culture dish inserts (12-mm diameter) (Millipore, Bedford, Mass.) that were precoated with 200 μl of undiluted Matrigel Growth Factor Reduced (BD Bioscience pharmingen) and placed in 24-well culture plates. The villous pieces were covered with 150 μl of culture medium (DMEM/F12 without serum supplemented with 100 U/ml penicillin, 100 μg/ml streptomycin, and 0.25 μg/ml ascorbic acid, pH 7.4) (Invitrogen, Carlsbad, Calif.), whereas the bottom chamber contained 500 μl of culture medium. […] Culture media were changed every 48 h and collected for measurement of glucose concentration.
(§2) In some experiments, morphological changes in villous explants were evaluated by hematoxylin and eosin (H&E) staining. Furthermore, the activity of cellular proliferation was determined by immunohistochemical detection of proliferating cell nuclear antigen (PCNA) and Ki-67 antigens. To measure the progression of apoptosis, some villous explants were subjected to a quantitative caspase-3/7 enzyme assay as described (Non-patent Documents 12, 16). Apoptosis in villous explants was also assayed by detecting DNA fragmentation using in situ terminal deoxynucleotidyl transferase-mediated […] nick end-labeling (TUNEL) (Non-patent Document 17).

[2] = tested on: human placental villous explants (villous cytotrophoblasts); assay: Human villous explant culture: trophoblast proliferation and viability (H&E, PCNA, Ki-67, glucose utilization); type: cell-based; settings: for detachment of trophoblast layers from villous stromal core / number of villous cytotrophoblasts: 96 h culture, H&E, TrkB ectodomain 10 μg/ml, K252a 1,000 nM, K252b 1,000 nM
Experimental: as §1
(§3) At the end of cultures, some villous explants including EVT outgrowth were subjected to RNA extraction for real-time RT-PCR to quantify the transcript levels of human leukocyte antigen-G (HLA-G). Glucose utilization by the villous explants was calculated from the difference between glucose concentration in fresh medium and that in the conditioned medium after 48 h of culture using an enzymatic assay (Mitsubishi BCL, Tokyo, Japan). The results were expressed as mg per 0.1 g wet weight tissue/48 h.
as §2
(§4) To localize BDNF and TrkB, BDNF and TrkB immunostaining in placental villi and villous tissues of ectopic pregnancy were performed as described (Non-patent Document 11). BDNF antigen and TrkB antigen were detected by rabbit anti-BDNF polyclonal antibody (Chemicon, Temecula, Calif.) and chicken anti-TrkB polyclonal antibody (Promega, Madison, Wis.) recognizing full length TrkB were used, respectively, after dilution to 1:100. Some slides were subjected to proliferating cell nuclear antigen (PCNA) or Ki-67 immunostaining to evaluate cellular proliferation, whereas cytokeratin and HLA-G immunostaining were performed to identify trophoblasts and extravillous trophoblasts (EVTs) in the xenotransplanted human villi, respectively. After deparaffinization and dehydration, antigen retrieval was performed by autoclave heating at 121° C. for 10 min (PCNA and Ki-67), treatment with 0.4 mg/ml proteinase K (Sigma, St. Louis, Mo.) at room temperature for 5 min (cytokeratin), or microwave heating in 10 mM citrate buffer (pH 6) for 3×3 min (HLA-G). Endogenous peroxidase activities were quenched with 0.3% […] in methanol for 30 min. […]

[3] = Side effects and body weight of treated SCID mice; type: in vivo
Text: To explore the roles of endogenous TrkB signaling in human ectopic pregnancy, xenotransplantation of human placental villi at 7-8 weeks of gestation into SCID mice (C.B-17/Icr-scid/scidJcl) (CLEA Japan, Tokyo, Japan) was used as an in vivo model. The care and use of animals was approved by the Animal Research Committee, Akita University School of Medicine. In preparation of grafts, small pieces of the placental villi were dissected as described above and kept in ice-cold PBS until transplantation. After anesthetizing of the SCID mice at 8-11 weeks of age with tribromoethanol (14-20 mg/kg) (Sigma, St. Louis, Mo.), the left and right kidneys were sequentially exteriorized. A 0.5 mm incision was then made in each kidney capsule, and a piece of the placental villi (5 mg wet weight) was transplanted underneath the capsule using a blunt tip tweezers. Treatment was initiated in animals after 1 week of transplantation when murine vascular networks were known to appear in areas of cytotrophoblast invasion (Non-patent Document 18). […] To identify trophoblasts in the kidney, cytokeratin, a marker for trophoblasts (Non-patent Document 20), was detected by immunohistochemistry. In addition to H&E staining, in vivo cell proliferation and apoptosis in the excised samples were evaluated by immunostaining of PCNA and Ki-67, and the TUNEL assay, respectively.

[4] = tested on: human placental villous explants (extravillous trophoblasts); assay: Human villous explant culture: EVT outgrowth and HLA-G transcript levels (trophoblast differentiation); type: cell-based; settings: 96 h culture; for EVT outgrowth: villous explants 6-8 weeks of gestation, 3% O2, different doses; for transcript levels of HLA-G: villous explants, 3% O2, real-time RT-PCR
Experimental: as §1, §3
(§5) Quantitative real-time RT-PCR of TrkB and human leukocyte antigen-G (HLA-G) transcript levels in placental villi and mouse kidneys with xenotransplanted human villi was performed using a SmartCycler (Takara, Tokyo, Japan) with primers and hybridization probes for TrkB and β-actin as described (Non-patent Document 32). Primers for TrkB corresponded to the catalytic kinase domain of the receptor to avoid the amplification of truncated isoforms (Non-patent Document 33). Fragmented TrkB was specifically amplified using a reported primer (Non-patent Document 37). Validated Taqman gene expression assay was used to quantify the expression of HLA-G (Applied Biosystems, Forster City, Calif.). Data were normalized based on β-actin transcript levels.

[5] = tested on: human placental villi transplanted under the kidney capsule; assay: Xenotransplantation of human villi into SCID mice as in vivo model of ectopic pregnancy
Text: To explore the roles of endogenous TrkB signaling in human ectopic pregnancy, xenotransplantation of human placental villi at 7-8 weeks of gestation into SCID mice (C.B-17/Icr-scid/scidJcl) (CLEA Japan, Tokyo, Japan) was used as an in vivo model. The care and use of animals was approved by the Animal Research Committee, Akita University School of Medicine. In preparation of grafts, small pieces of the placental villi were dissected as described above and kept in ice-cold PBS until transplantation. After anesthetizing of the SCID mice at 8-11 weeks of age with tribromoethanol (14-20 mg/kg) (Sigma, St. Louis, Mo.), the left and right kidneys were sequentially exteriorized. A 0.5 mm incision was then made in each kidney capsule, and a piece of the placental villi (5 mg wet weight) was transplanted underneath the capsule using a blunt tip tweezers. Treatment was initiated in animals after 1 week of transplantation when murine vascular networks were known to appear in areas of cytotrophoblast invasion (Non-patent Document 18). Animals weighted between 19-22 g on day of treatment. Intraperitoneal (ip) administration of K252a dissolved in physiological saline (500 μg/kg) was performed daily. For negative controls, treatment with K252b (500 μg/kg) or vehicle alone was used. The doses of K252a and K252b chosen for these experiments were based on previous studies (Non-patent Documents 12, 19). Some animals were treated daily with methotrexate (ip; 1 mg/kg) (Sigma) corresponding to the therapeutic dose used for medical treatment of ectopic pregnancy (Non-patent Document 3). The mice were killed after 7 days of treatment. Kidneys with villi transplants were excised and homogenized to measure hCG-β levels and caspase-3/7 activities. To identify trophoblasts in the kidney, cytokeratin, a marker for trophoblasts (Non-patent Document 20), was detected by immunohistochemistry. In addition to H&E staining, in vivo cell proliferation and apoptosis in the excised samples were evaluated by immunostaining of PCNA and Ki-67, and the TUNEL assay, respectively.
as §5, §4

[6] = K252a 500 μg/kg ip daily for 7 days

Compound | proportion of TUNEL-positive nuclei [1] | caspase-3/7 activities, increase relative to controls [1] | detachment of trophoblast layers from villous stromal core [2] | number of villous cytotrophoblasts [2] | EVT outgrowth [4] | transcript levels of HLA-G [4] | also measured
COC(=O)[C@@]1(O)C[C@H]2O[C@]1(C)n1c3ccccc3c3c4c(c5c6ccccc6n2c5c31)C(=O)NC4 [K252a] | increased the proportion of TUNEL-positive nuclei | Increases in caspase-3/7 activities | induced partial detachment of trophoblast layers | decreased the number of villous cytotrophoblasts | suppressed EVT outgrowth in a dose-dependent manner | decreases in the transcript levels of HLA-G | inhibition at 1 µM ([2]; Homo sapiens, 48 h, read-out: glucose utilization by villous explants, inhibition): > 94%; body weight ([3]; 500 μg/kg ip daily, during studies, mean±SEM): 19.27 ± 1.03 g; body weight changes ([3]; K252a 500 μg/kg ip daily): no body weight changes; TUNEL-positive nuclei in cytotrophoblasts [5, 6]: increases in TUNEL-positive nuclei; activation of caspase-3/7 within the xenografts, increase relative to vehicle [5, 6]: 4.1 fold; cell proliferation by PCNA and Ki-67 staining [5, 6]: suppression of cell proliferation; transcript levels for HLA-G in kidney with transplanted villi [5, 6]: major decreases in transcript levels for HLA-G; decrease in hCG-β levels in tissue homogenates ([5]; K252a 500 μg/kg ip daily for 7 days, RIA): 73.3%; cell numbers of invading EVTs and cytotrophoblasts in villous cores ([5]; K252a 500 μg/kg ip daily for 7 days, cytokeratin, HLA-G, H&E staining): decreases in cell numbers of invading EVTs and cytotrophoblasts
C[C@]12O[C@H](C[C@]1(O)C(=O)O)n1c3ccccc3c3c4c(c5c6ccccc6n2c5c31)CNC4=O [K252b] |  |  |  |  |  |  | all parameters tested in the xenotransplant model ([5]; K252b 500 μg/kg ip daily for 7 days): ineffective
CN(Cc1cnc2nc(N)nc(N)c2n1)c1ccc(C(=O)N[C@@H](CCC(=O)O)C(=O)O)cc1 [MTX, methotrexate] |  |  |  |  |  |  | trophoblast differentiation, proliferation, and survival ([5]; MTX 1 mg/kg ip daily for 7 days): did not inhibit
TrkB ectodomain: soluble ectodomain of TrkB (R&D Systems), binds BDNF and competingly suppresses BDNF/TrkB binding | increased the proportion of TUNEL-positive nuclei | Increases in caspase-3/7 activities | induced partial detachment of trophoblast layers | decreased the number of villous cytotrophoblasts | suppressed EVT outgrowth in a dose-dependent manner | decreases in the transcript levels of HLA-G | 
